In ChEMBL document CHEMBL4020826 (J Med Chem, 2018):

What was measured:
[1] = molecular target: T1, Metabotropic glutamate receptor 2 (Homo sapiens, UniProt Q14416); assay: Displacement of [3H]-LY459477 from recombinant human mGlu2 receptor expressed in HEK cell membranes after 90 mins by liquid scintillation counting
[2] = molecular target: T1, Metabotropic glutamate receptor 2; assay: Agonist activity at human mGlu2 receptor expressed in HEK cells assessed as inhibition of forskolin-stimulated cAMP formation after 20 mins by HTRF assay; type: functional, cell-based
[3] = molecular target: T1, Metabotropic glutamate receptor 2; assay: Antagonist activity at human mGlu2 receptor expressed in HEK cells assessed as reversal of DCG-4 inhibited forskolin-stimulated cAMP formation after 20 mins by HTRF assay; type: functional, cell-based
[4] = molecular target: T2, Metabotropic glutamate receptor 3 (Homo sapiens, UniProt Q14832); assay: Antagonist activity at human mGlu3 receptor expressed in HEK cells assessed as reversal of DCG-4 inhibited forskolin-stimulated cAMP formation after 20 mins by HTRF assay; type: functional, cell-based
T2 sequence (Q14832 whole entry): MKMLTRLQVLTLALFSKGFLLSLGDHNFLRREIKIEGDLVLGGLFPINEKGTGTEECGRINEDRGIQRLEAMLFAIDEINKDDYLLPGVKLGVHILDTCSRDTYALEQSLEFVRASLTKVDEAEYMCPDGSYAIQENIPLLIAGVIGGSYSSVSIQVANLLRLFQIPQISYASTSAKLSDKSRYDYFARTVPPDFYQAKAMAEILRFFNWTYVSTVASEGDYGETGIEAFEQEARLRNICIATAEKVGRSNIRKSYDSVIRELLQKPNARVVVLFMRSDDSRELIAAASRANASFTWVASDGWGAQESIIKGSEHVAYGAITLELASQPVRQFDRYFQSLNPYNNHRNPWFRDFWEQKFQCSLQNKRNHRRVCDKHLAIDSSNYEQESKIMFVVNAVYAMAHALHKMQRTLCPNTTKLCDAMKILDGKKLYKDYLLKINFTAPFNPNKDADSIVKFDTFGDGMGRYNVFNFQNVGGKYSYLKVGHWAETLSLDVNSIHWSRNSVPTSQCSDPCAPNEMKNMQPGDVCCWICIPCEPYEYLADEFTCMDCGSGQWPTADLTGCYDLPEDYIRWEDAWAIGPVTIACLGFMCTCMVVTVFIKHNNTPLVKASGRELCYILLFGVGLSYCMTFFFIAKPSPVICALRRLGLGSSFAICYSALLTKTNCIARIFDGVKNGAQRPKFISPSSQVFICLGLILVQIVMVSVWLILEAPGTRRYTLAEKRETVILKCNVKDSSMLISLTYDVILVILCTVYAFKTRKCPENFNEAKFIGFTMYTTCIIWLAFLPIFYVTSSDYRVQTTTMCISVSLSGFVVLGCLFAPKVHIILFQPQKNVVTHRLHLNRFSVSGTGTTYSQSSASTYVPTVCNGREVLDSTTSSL

[5] = molecular target: T2, Metabotropic glutamate receptor 3
Description: Agonist activity at human mGlu3 receptor expressed in HEK cells assessed as inhibition of forskolin-stimulated cAMP formation after 20 mins by HTRF assay

[6] = molecular target: T2, Metabotropic glutamate receptor 3; assay: biochemical
Description: Displacement of [3H]-LY459477 from recombinant human mGlu3 receptor expressed in HEK cell membranes after 90 mins by liquid scintillation counting

T1 sequence (Q14416 whole entry): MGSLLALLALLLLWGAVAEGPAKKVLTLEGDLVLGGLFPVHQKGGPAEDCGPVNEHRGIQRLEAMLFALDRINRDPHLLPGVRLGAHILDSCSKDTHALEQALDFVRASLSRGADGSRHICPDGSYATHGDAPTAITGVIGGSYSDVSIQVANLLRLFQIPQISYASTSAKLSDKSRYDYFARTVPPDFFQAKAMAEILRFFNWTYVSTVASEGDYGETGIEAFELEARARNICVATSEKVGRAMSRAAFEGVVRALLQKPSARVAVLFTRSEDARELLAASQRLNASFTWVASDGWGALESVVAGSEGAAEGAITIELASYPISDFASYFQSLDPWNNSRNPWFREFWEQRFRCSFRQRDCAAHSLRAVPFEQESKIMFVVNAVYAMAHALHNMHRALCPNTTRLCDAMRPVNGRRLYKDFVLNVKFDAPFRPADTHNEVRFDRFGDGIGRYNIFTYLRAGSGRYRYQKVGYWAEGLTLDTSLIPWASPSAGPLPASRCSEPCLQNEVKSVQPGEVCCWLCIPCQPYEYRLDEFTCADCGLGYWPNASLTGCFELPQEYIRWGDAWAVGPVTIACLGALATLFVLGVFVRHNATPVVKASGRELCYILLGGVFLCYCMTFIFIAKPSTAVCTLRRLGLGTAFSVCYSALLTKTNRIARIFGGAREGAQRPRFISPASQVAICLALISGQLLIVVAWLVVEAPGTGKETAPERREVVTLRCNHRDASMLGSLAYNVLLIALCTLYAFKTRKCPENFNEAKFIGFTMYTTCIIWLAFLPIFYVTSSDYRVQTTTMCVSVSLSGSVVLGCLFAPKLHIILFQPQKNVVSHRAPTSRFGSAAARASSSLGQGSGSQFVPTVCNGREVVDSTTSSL

SMILES	Ki [1] [nM]	EC50 [2] [nM]	IC50 [3] [nM]	IC50 [4] [nM]	EC50 [5] [nM]	Ki [6] [nM]
N[C@@]1(C(=O)O)C[C@H](NC(=O)CCc2ccccc2)[C@H]2[C@H](C(=O)O)[C@H]21	595	893	5540	2050	> 25000	281
N[C@H]1C[C@@](N)(C(=O)O)[C@@H]2[C@@H](C(=O)O)[C@@H]21	4410					284
COc1ccc(C(=O)N[C@H]2C[C@@](N)(C(=O)O)[C@@H]3[C@@H](C(=O)O)[C@@H]32)cc1	188	16			2.44	4.56
N[C@@]1(C(=O)O)C[C@H](NCc2ccccc2)[C@H]2[C@H](C(=O)O)[C@H]21	11200	508			356	1070
N[C@@]1(C(=O)O)C[C@H](NC(=O)c2cccc(Cl)c2)[C@H]2[C@H](C(=O)O)[C@H]21	85.3	8.37			0.82	0.47
N[C@@]1(C(=O)O)C[C@H](NC(=O)c2cccc(O)c2)[C@H]2[C@H](C(=O)O)[C@H]21	31.5	3.77			0.71	2.27
N[C@@]1(C(=O)O)C[C@H](NC(=O)c2ccc(O)cc2)[C@H]2[C@H](C(=O)O)[C@H]21	54.7	6.32			2.12	9.34
CC(=O)N[C@H]1C[C@@](N)(C(=O)O)[C@@H]2[C@@H](C(=O)O)[C@@H]21	898					177
N[C@@]1(C(=O)O)C[C@H](NC(=O)c2ccc(F)cc2)[C@H]2[C@H](C(=O)O)[C@H]21	330	19.1			6.6	4.34
N[C@@]1(C(=O)O)C[C@H](NC(=O)c2ccccc2O)[C@H]2[C@H](C(=O)O)[C@H]21	58.2	7.44			0.17	1.79
COc1ccccc1C(=O)N[C@H]1C[C@@](N)(C(=O)O)[C@@H]2[C@@H](C(=O)O)[C@@H]21	151	26.5			7.15	23.2
N[C@@]1(C(=O)O)C[C@H](NC(=O)C2CCCCC2)[C@H]2[C@H](C(=O)O)[C@H]21	1520	3390	12000	9990	> 25000	757
N[C@@]1(C(=O)O)C[C@H](NC(=O)c2ccccc2Cl)[C@H]2[C@H](C(=O)O)[C@H]21	391	42.5			4.96	27.4
N[C@@]1(C(=O)O)C[C@H](NC(=O)c2cccc(F)c2)[C@H]2[C@H](C(=O)O)[C@H]21	214	18.1			2	2.11
N[C@@]1(C(=O)O)C[C@H](NC(=O)c2ccc(Cl)cc2)[C@H]2[C@H](C(=O)O)[C@H]21	137	6.97			5.15	2.29
N[C@@]1(C(=O)O)C[C@H](NC(=O)c2ccccc2F)[C@H]2[C@H](C(=O)O)[C@H]21	218	17.1			5.1	5.79
N[C@@]1(C(=O)O)C[C@H](NC(=O)c2ccccc2)[C@H]2[C@H](C(=O)O)[C@H]21	294	19.8			4.96	6.75
